# Laboratory results taken from US11339161B2, “Triazolo pyridines as modulators of gamma-secretase” (Boehringer Ingelheim International GmbH, priority 2017, dated 2022).
# Where two headings read alike, the source gives them in different places.
# Tests used:
# [1] = molecular target: FGFR1 (Homo sapiens, UniProt P11362); test: Z'-LYTE SelectScreen biochemical kinase assay FGFR1
# Source text: (§1) Thermo Fisher Scientific SelectScreen™ Biochemical Kinase Profiling Service Z′-LYTE™ Screening Protocol and Assay Conditions Assay Theory
# (§2) The […] biochemical assay employs a fluorescence-based, coupled-enzyme format and is based on the differential sensitivity of phosphorylated and non-phosphorylated peptides to proteolytic cleavage. The peptide substrate is labeled with two fluorophores—one at each end—that make up a FRET pair. In the primary reaction, the kinase transfers the gamma-phosphate of ATP to a single tyrosine, serine or threonine residue in a synthetic FRET-peptide. In the secondary reaction, a site-specific protease recognizes and cleaves non-phosphorylated FRET-peptides. Phosphorylation of FRET-peptides suppresses cleavage by the Development Reagent. Cleavage disrupts FRET between the donor (i.e., coumarin) and acceptor (i.e., fluorescein) fluorophores on the FRET-peptide, whereas uncleaved, phosphorylated FRET-peptides maintain FRET. A ratiometric method, which calculates the ratio (Emission Ratio=Coumarin emission (445 nm)/Fluorescein emission (520 nm)) of donor emission to acceptor emission after excitation of the donor fluorophore at 400 nm, is used to quantitate reaction progress, as shown in the equation below. A significant benefit of this ratiometric method for quantitating reaction progress is the elimination of well-to-well variations in FRET-peptide concentration and signal intensities. As a result, the assay yields very high Z′-factor values (>0.7) at a low percent phosphorylation. Both cleaved and uncleaved FRET-peptides contribute to the fluorescence signals and therefore to the Emission Ratio. The extent of phosphorylation of the FRET-peptide can be calculated from the Emission Ratio. The Emission Ratio will remain low if the FRET-peptide is phosphorylated (i.e., no kinase inhibition) and will be high if the FRET-peptide is non-phosphorylated (i.e., kinase inhibition).
# (§3) The Test Compounds are screened in 1% DMSO (final) in the well. For 10 point titrations, 3-fold serial dilutions are conducted from the starting concentration of the customer's choosing.
# (§4) All Peptide/Kinase Mixtures are diluted to a 2× working concentration in the appropriate Kinase Buffer (see section Kinase Specific Assay Conditions for a complete description).
# (§5) All ATP Solutions are diluted to a 4× working concentration in Kinase Buffer (50 mM HEPES pH 7.5, 0.01% BRIJ-35, 10 mM MgCl2, 1 mM EGTA). ATP Km apparent is previously determined using a Z″-LYTE assay.
# (§6) The Development Reagent is diluted in Development Buffer (see section Kinase-Specific Assay Conditions—Direct and Cascade for a complete description).
# (§7) Bar-coded Corning, low volume NBS, black 384-well plate (Corning Cat. #4514) • 1. 100 nL—100× Test Compound in 100% DMSO • 2. 2.4 μL—Kinase buffer • 3. 5 μL—2× Peptide/Kinase Mixture • 4. 2.5 μL—4×ATP Solution • 5. 30—second plate shake • 6. 60—minute Kinase Reaction incubation at room temperature • 7. 5 μL—Development Reagent Solution • 8. 30—second plate shake • 9. 60—minute Development Reaction incubation at room temperature • 10. Read on fluorescence plate reader and analyze the data Z′-LYTE Assay Controls
# (§8) SelectScreen Kinase Profiling Service uses XLfit from IDBS. The dose response curve is curve fit to model number 205 (sigmoidal dose-response model).
# The 2×FGFR1/Tyr 04 mixture is prepared in 50 mM HEPES pH 7.5, 0.01% BRIJ-35, 10 mM MgCl2, 4 mM MnCl2, 1 mM EGTA, 2 mM DTT. The final 10 μL Kinase Reaction consists of 0.44-2.45 ng FGFR1 and 2 μM Tyr 04 in 50 mM HEPES pH 7.5, 0.01% BRIJ-35, 10 mM MgCl2, 2 mM MnCl2, 1 mM EGTA, 1 mM DTT. After the 1 hour Kinase Reaction incubation, 5 μL of a 1:64 dilution of Development Reagent B is added.
# [2] = molecular target: ABL1 (Homo sapiens, UniProt P00519); test: Z'-LYTE SelectScreen biochemical kinase assay ABL1
# Sequence of ABL1 (P00519 whole entry): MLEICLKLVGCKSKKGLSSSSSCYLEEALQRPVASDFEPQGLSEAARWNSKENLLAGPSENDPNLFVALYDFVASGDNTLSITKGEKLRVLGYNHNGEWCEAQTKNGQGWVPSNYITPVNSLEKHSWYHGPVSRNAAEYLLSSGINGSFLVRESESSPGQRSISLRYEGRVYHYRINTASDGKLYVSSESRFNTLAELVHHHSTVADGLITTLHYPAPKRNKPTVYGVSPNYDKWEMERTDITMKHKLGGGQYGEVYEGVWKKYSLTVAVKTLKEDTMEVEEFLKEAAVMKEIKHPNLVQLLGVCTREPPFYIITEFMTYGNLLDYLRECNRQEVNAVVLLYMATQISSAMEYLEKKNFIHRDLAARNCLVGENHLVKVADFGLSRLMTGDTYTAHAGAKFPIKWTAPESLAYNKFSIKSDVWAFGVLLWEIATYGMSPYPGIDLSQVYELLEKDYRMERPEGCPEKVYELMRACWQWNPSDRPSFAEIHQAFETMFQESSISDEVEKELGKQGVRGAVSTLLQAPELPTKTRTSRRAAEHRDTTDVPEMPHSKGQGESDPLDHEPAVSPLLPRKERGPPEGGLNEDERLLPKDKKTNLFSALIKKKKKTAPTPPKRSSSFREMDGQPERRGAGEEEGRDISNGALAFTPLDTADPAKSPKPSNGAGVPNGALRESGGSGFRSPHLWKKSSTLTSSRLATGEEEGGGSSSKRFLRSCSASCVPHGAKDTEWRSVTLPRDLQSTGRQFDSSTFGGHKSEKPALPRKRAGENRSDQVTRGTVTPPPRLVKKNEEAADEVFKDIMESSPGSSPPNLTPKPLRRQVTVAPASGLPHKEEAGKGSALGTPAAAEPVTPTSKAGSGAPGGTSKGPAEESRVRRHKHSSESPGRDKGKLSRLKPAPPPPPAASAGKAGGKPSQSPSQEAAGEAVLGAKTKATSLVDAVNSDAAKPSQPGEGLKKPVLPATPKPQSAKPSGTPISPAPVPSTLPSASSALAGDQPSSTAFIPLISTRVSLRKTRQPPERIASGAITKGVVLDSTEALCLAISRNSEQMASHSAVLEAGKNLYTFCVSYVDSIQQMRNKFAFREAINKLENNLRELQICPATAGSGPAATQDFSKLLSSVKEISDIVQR
# Source text: as §1, §2, §3, §4, §5, §6, §7, §8
# (§9) The 2×ABL1/Tyr 02 mixture is prepared in 50 mM HEPES pH 7.5, 0.01% BRIJ-35, 10 mM MgCl2, 1 mM EGTA. The final 10 μL Kinase Reaction consists of 0.29-1.26 ng ABL1 and 2 μM Tyr 02 in 50 mM HEPES pH 7.5, 0.01% BRIJ-35, 10 mM MgCl2, 1 mM EGTA. After the 1 hour Kinase Reaction incubation, 5 μL of a 1:128 dilution of Development Reagent A is added.
# [3] = molecular target: T1, AURKA (Aurora A) (Homo sapiens, UniProt O14965); test: Z'-LYTE SelectScreen biochemical kinase assay AURKA (Aurora A)
# T1 sequence (O14965 1-403): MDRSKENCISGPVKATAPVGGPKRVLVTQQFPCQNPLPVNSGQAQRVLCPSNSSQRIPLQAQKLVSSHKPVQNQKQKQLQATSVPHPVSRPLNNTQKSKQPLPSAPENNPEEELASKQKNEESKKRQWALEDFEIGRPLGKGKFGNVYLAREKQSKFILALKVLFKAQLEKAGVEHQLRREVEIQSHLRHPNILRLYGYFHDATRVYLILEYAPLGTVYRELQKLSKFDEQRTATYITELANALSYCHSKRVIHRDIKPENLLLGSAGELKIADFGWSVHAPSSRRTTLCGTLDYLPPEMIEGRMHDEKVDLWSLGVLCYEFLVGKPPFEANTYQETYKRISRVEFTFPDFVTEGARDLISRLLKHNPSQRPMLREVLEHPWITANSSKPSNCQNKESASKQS
# Source text: as §1, §2, §3, §4, §5, §6, §7, §8
# as §9, with “2×AURKA (Aurora A)/Ser/Thr 01” for “2×ABL1/Tyr 02”, “0.91-8.56” for “0.29-1.26”, “AURKA (Aurora A)” for “ABL1”, “Ser/Thr 01” for “Tyr 02”, “1:4096” for “1:128”
# [4] = 10 μmolar compound concentration, ATP at Km app, read-out: FGFR1 inhibition
# [5] = read-out: % Inhibition mean FGFR1
# [6] = 10 μmolar compound concentration, ATP at Km app, read-out: ABL1 inhibition
# [7] = read-out: % Inhibition mean ABL1
# [8] = 10 μmolar compound concentration, ATP at Km app, read-out: AURKA (Aurora A) inhibition
# [9] = read-out: % Inhibition mean AURKA (Aurora A)
# Sequence of FGFR1 (P11362 22-822): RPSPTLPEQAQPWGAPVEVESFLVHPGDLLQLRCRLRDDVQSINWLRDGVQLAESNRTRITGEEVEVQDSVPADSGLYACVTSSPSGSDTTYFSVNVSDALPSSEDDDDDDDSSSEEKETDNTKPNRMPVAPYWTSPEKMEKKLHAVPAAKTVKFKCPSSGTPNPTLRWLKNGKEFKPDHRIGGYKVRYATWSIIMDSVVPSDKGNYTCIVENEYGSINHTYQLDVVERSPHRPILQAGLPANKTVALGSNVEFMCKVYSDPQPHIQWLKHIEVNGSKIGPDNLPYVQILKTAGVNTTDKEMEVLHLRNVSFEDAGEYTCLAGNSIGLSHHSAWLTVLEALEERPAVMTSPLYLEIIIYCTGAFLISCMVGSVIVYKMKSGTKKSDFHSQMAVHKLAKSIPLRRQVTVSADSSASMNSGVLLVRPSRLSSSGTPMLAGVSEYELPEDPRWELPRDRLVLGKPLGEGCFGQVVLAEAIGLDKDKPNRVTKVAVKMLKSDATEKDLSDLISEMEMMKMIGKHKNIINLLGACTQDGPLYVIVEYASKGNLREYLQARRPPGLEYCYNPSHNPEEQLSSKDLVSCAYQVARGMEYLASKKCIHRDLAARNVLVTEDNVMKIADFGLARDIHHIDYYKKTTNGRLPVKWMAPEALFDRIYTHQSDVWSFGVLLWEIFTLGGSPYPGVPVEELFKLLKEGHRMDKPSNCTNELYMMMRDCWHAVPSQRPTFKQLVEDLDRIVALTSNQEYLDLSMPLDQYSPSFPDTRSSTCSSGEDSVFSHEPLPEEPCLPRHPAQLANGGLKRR
"inhibition at 10 µM [1, 4] [%]","inhibition at 10 µM [1, 5] [%]","inhibition at 10 µM [2, 6] [%]","inhibition at 10 µM [2, 7] [%]","inhibition at 10 µM [3, 8] [%]","inhibition at 10 µM [3, 9] [%]",Structure (SMILES)
< 40,18,< 40,15,40 to 80,51,"CCn1ncc2c1CCC(Nc1nc3c(-c4cncc(OC)c4)cccn3n1)C2 (stereo not drawn) [Example 70, (1-Ethyl-4,5,6,7-tetrahydro-1H-indazol-5-yl)-[8-(5-methoxy-pyridin-3-yl)-[1,2,4]triazolo[1,5-a]pyridine-2-yl]-amine]"
< 40,21,< 40,10,< 40,14,"CCCCn1ncc2c1CCC(Nc1nc3c(-c4ccc(F)cc4C)cccn3n1)C2 (stereo not drawn) [Example 46, [8-(4-fluoro-2-methyl-phenyl)-[1,2,4]triazolo[1,5-a]pyridine-2-yl]-(1-butyl-4,5,6,7-tetrahydro-1H-indazol-5-yl)-amine]"
< 40,9,< 40,15,< 40,-14,"CCn1ncc2c1C(C)CC(Nc1nc3c(-c4cc(F)c(F)c(F)c4)cccn3n1)C2 (stereo not drawn) [Example 49, (1-Ethyl-7-methyl-4,5,6,7-tetrahydro-1H-indazol-5-yl)-[8-(3,4,5-trifluoro-phenyl)-[1,2,4]triazolo[1,5-a]pyridine-2-yl]-amine]"
< 40,23,< 40,28,< 40,39,"CCn1ncc2c1CCC(Nc1nc3c(-c4cnccc4OC)cccn3n1)C2 (stereo not drawn) [Example 68, (1-Ethyl-4,5,6,7-tetrahydro-1H-indazol-5-yl)-[8-(4-methoxy-pyridin-3-yl)-[1,2,4]triazolo[1,5-a]pyridine-2-yl]-amine]"
